Measured values as given in the supplement of paper PMC6045584.
± gives the standard deviation of the averaged measurements.

Tests used:
AZD4547 = compound: COc1cc(CCc2cc(NC(=O)c3ccc(N4CC(C)NC(C)C4)cc3)n[nH]2)cc(OC)c1 [AZD4547]; experiment: surviving fraction relative to DMSO-only wells; higher = less growth inhibition; details: exposure time: 5 days
How it was run: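 In 384-well plates, 250–500 log-phase tumour cells per well were given 24 hours before five days of continuous exposure to inhibitors at 0.5, 1, 5, 10, 50, 100, 500 and 1000 nM. Surviving fraction is luminescence from CellTiter-Glo, normalised to the median of wells containing DMSO alone. Reading took place after 10 minutes at room temperature.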

ERLOTINIB = compound: C#Cc1cccc(Nc2ncnc3cc(OCCOC)c(OCCOC)cc23)c1 [ERLOTINIB]; experiment: area under dose-response curve of surviving fraction (unscaled, Aref=0) (surviving fraction x log10(nM)); higher = more resistant; details: exposure time: 5 days; dose range 0.5-1000 nM
How it was run: (§1)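 Tumour cell lines in 384-well plates were exposed to eight inhibitor concentrations, from 0.5 to 1000 nM, for five days, and viability was read by CellTiter-Glo luminescence in three screens per line. Signals were normalised to DMSO-only wells, and 3-parameter logistic regression in the drc R package fitted dose-response survival curves to the surviving fractions. Area under the curve is given as the unscaled activity area. That area is taken over log10 dose with Aref = 0.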

VINORELBINE = compound: CCC1=C[C@@H]2CN(C1)Cc1c([nH]c3ccccc13)[C@@](C(=O)OC)(c1cc3c(cc1OC)N(C)[C@H]1[C@@](O)(C(=O)OC)[C@H](OC(C)=O)[C@]4(CC)C=CCN5CC[C@]31[C@@H]54)C2 [VINORELBINE]; experiment: as above; details: exposure time: 5 days; dose range 0.5-1000 nM
How it was run: as §1

METHOTREXATE = compound: CN(Cc1cnc2nc(N)nc(N)c2n1)c1ccc(C(=O)N[C@@H](CCC(=O)O)C(=O)O)cc1 [METHOTREXATE]; experiment: as above; details: exposure time: 5 days; dose range 0.5-1000 nM
How it was run: as §1

[1] = compound: Cc1nc(Nc2n[nH]c3c2CN(C(=O)N[C@H](CN(C)C)c2ccccc2)C3(C)C)c2sccc2n1; experiment: as above; details: exposure time: 5 days; dose range 0.5-1000 nM
How it was run: as §1

GEMCITABINE = compound: Nc1ccn([C@@H]2O[C@H](CO)[C@@H](O)C2(F)F)c(=O)n1 [GEMCITABINE]; experiment: as above; details: exposure time: 5 days; dose range 0.5-1000 nM
How it was run: as §1

[2] = compound: O=C(NOCC1CC1)c1ccc(F)c(F)c1Nc1ccc(I)cc1Cl; experiment: as above; details: exposure time: 5 days; dose range 0.5-1000 nM
How it was run: as §1

Row | Test System | surviving fraction (AZD4547; 0.5 nM) | surviving fraction (AZD4547; 1 nM) | surviving fraction (AZD4547; 5 nM) | surviving fraction (AZD4547; 10 nM) | surviving fraction (AZD4547; 50 nM) | surviving fraction (AZD4547; 100 nM) | surviving fraction (AZD4547; 500 nM) | surviving fraction (AZD4547; 1000 nM) | area under dose-response curve (ERLOTINIB) | area under dose-response curve (VINORELBINE) | area under dose-response curve (METHOTREXATE) | area under dose-response curve [1] | area under dose-response curve (GEMCITABINE) | area under dose-response curve [2]
1 | HUO3N1 BONE | 1.01 ± 0.05 | 0.976 ± 0.015 | 1.05 ± 0.059 | 0.95 ± 0.072 | 0.85 ± 0.022 | 0.816 ± 0.018 | 0.693 ± 0.04 | 0.608 ± 0.018 | 3.54 | 2 | 2.8 | 2.38 | 1.51 | 3.35
2 | CAL72 BONE | 1.08 ± 0.022 | 1.096 ± 0.0035 | 1.05 ± 0.043 | 0.791 ± 0.067 | 0.331 ± 0.028 | 0.257 ± 0.013 | 0.19 ± 0.031 | 0.158 ± 0.026 | 3.5 | 2.14 | 2.39 | 1.77 | 1.4 | 3.52
3 | LNCAP PROSTATE | 0.881 ± 0.092 | 0.995 ± 0.12 | 0.861 ± 0.036 | 0.829 ± 0.043 | 0.821 ± 0.13 | 0.903 ± 0.037 | 0.752 ± 0.11 | 0.857 ± 0.25 | 3.2 | 1.23 | 2.36 | 0.726 | 1.22 | 2.93
4 | G292 BONE | 0.93 ± 0.062 | 0.917 ± 0.035 | 0.801 ± 0.018 | 0.566 ± 0.0083 | 0.207 ± 0.0036 | 0.173 ± 0.011 | 0.138 ± 0.021 | 0.107 ± 0.0059 | 3.44 | 1.48 | 3.41 | 1.22 | 1.39 | 3.17
5 | SCC003 HEADNECK | 1.05 ± 0.091 | 1.03 ± 0.014 | 1.13 ± 0.06 | 1.1 ± 0.083 | 1.07 ± 0.021 | 1.1 ± 0.065 | 1.02 ± 0.088 | 0.996 ± 0.071 | 3.14 | 1.98 | 2.41 | 1.57 | 1.57 | 2.83
6 | C33A CERVIX | 0.847 ± 0.084 | 0.948 ± 0.074 | 0.96 ± 0.027 | 0.969 ± 0.099 | 0.915 ± 0.015 | 0.953 ± 0.1 | 0.811 ± 0.024 | 0.75 ± 0.086 | 3.19 | 1.62 | 2.33 | 0.95 | 1.15 | 2.3
